Legend:
[1] = system: Twist; assay: Expression of Twist in U87-MG and MDA-MB-231 cells; format: cell-based, human; conditions: U87-MG and MDA-MB-231, 24 hours
Experimental: RNA isolation and real-time polymerase chain reaction were performed as described previously (Jung J E, et al. FASEB J. 19, 1296-1298 (2005)). Primer specific for human-derived Bcl-XL, Bcl-2, Twist, and GADPH genes were mixed with QuantiFast SYBR Green PCR master mix, and each gene was amplified using the Applied Biosystems 7300 real-time PCR system to compare the expression level.

[2] = target: T1, STAT3 (Homo sapiens, UniProt P40763); assay: STAT3 activity in various human cancer cell lines with excessively activated or IL-6-induced STAT3; format: cell-based; parameters: endogenous in cells; host or cells: L540, HDLM-2, U87-MG, MDA-MB-231, further human glioblastoma and breast cancer lines
Experimental: (§1) The human cancer cell lines used in the experiment were U87-MG (human malignant glioblastoma) and MDA-MB-231 (human malignant breast cancer) cell lines, and various kinds of human-derived blood and solid cancer cells including these human cancer cell lines were cultured as previously described (Jung J E, et al. FASEB J. 19, 1296-1298 (2005)). The human Hodgkin lymphoma cancer cell lines L540 and HLDM-2 used in the experiment were obtained from the German Collection of Microorganism and Cell Cultures (DSMZ, Germany) and cultured using RPMI 1640 medium containing 20% FBS in a 5% CO2 incubator at a temperature of 37° C.
(§2) Western blot analysis was performed (Jung J E, et al. FASEB J. 19, 1296-1298 (2005)). The cells were washed two times with PBS and suspended in the lysate (50 mM Tris-HCl, pH 7.4, 350 mM NaCl, 1% Triton X-100, 0.5% Nonidet P-40, 10% glycerol, 0.1% SDS, 1 mM EDTA, 1 mM EGTA, 1 mM Na3VO4, 1 mM PMSF, protease and phosphorylation inhibitor) and the cell membrane and nuclear membrane were crushed to lyse the cells. The insoluble protein fraction was removed by centrifugation, and the supernatant was mixed with SDS electrophoresis buffer and electrophoresis (SDS-PAGE) was performed to detect the protein with the desired antibody and to confirm the protein expression level.
Target sequence in this assay (P40763 whole entry): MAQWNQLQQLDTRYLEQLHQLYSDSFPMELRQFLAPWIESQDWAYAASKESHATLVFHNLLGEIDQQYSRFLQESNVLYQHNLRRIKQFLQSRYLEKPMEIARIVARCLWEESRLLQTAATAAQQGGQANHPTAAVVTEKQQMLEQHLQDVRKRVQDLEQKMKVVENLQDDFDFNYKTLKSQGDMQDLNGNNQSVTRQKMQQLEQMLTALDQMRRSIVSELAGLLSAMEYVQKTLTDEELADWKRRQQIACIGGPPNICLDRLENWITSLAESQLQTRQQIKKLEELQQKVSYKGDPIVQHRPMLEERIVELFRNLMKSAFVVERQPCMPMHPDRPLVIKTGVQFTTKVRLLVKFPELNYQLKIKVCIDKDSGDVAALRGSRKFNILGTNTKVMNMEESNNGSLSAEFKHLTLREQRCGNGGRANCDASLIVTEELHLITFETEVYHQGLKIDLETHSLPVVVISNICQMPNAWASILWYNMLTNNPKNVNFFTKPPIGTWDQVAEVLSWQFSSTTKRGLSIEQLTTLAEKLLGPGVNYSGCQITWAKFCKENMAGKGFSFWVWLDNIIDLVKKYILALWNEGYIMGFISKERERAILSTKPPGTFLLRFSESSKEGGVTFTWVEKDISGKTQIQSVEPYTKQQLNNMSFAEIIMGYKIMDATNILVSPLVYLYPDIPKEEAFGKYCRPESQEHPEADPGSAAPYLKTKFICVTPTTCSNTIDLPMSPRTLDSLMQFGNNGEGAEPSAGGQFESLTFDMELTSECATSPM

[3] = system: U87-MG cells; assay: Human tumor cell xenograft, U87-MG; format: in vivo, BALB/c nude mice; conditions: injected directly into the tumor, versus DMSO
Experimental: Male Nude Mouse (BALB/cAnNCrj-nu/nu) was purchased from Charles River Japan Inc. (Shin-Yokohama, Japan). The mouse was bred in a clean room in which the temperature and humidity were constantly controlled. The breeding process was carried out according to the method described in the manual for maintenance of laboratory animals in Seoul National University. U87-MG cells or MDA-MB-231 cells were diluted with PBS, suspended in 100 μl of Matrigel at 25% concentration, and injected into the back of mouse and bred for 6 to 10 weeks. Human tumor growth was measured every other day using a vernier caliper from 2 weeks after cell injection. With regard to the degree of inhibition of human tumor cell formation, 40 μM of ODZ10117 was directly injected into the human tumor on days 0, 3, and 5 from week 4 of tumor cell injection. On the 7th day, the mouse was sacrificed to separate the tumor, and the tumor cell inhibitory efficacy of the drug was measured by being compared with that of the control group treated with 1% DMSO.

[4] = system: U87-MG cells; assay: Matrigel invasion assay, U87-MG; format: cell-based, human; conditions: 24 hours, versus DMSO
Experimental: The growth factor-reduced Matrigel was diluted with a serum-free culture solution at a 1:3 ratio, transferred to a 24-well plate, and solidified at 37° C. for 5 hours. The cells were placed in a culture solution containing 1% serum and added to the solidified Matrigel, 600 μl of a culture solution containing 10% serum to which fibronectin was added at a concentration of […] was added thereto, and the cells were cultured for 24 hours. Thereafter, the cells were fixed and stained by adding Diffquick solution thereto and then observed under a Leica Application Suite microscope, and images were taken.

[5] = system: p-STAT3, Cleaved Caspase-3, Bcl-XL, Ki67 and MMP2; assay: Tumor histology and immunostaining of xenograft tumor sections; format: in vivo, BALB/c nude mice; conditions: 7th day of drug administration
Experimental: Tumors isolated from mice were fixed with formalin and embedded with paraffin, and sections were cut from each paraffin block. For histological evaluation, the sections were stained with hematoxylin-eosin, phospho-STAT3, cleaved caspase-3, Bcl-XL, Ki67, and pro/active MMP-2, respectively. The paraffin of the sections was removed, moisture was removed using alcohol, and then the sections were heated in 10 mM sodium citrate buffer (pH: 6.0) for 5 minutes with microwaves. Non-specific binding was removed by reacting the sections with a PBS solution containing 2.5% bovine serum albumin and 2% normal goat serum for 1 hour. The sections were reacted with antibodies against phospho-STAT3, cleaved caspase-3, Bcl-XL, Ki67, and pro/active MMP-2 diluted 1:100 overnight at 4° C. As a negative control, the sections were reacted with a dilution solution in a state of not containing primary antibodies. The sections were then washed and reacted with secondary antibodies labeled with appropriate biotin, and the location and expression of the bound antibodies were confirmed using an avidin-biotin-horseradish complex. For histological evaluation, each stained section was observed under a microscope at 100-fold and 400-fold magnifications and analysis was performed using a Sony XC-77 CCD camera and a microcomputer imaging device Model 4 image analysis system.

[6] = system: U87-MG cells; assay: Survival of mice injected with U87-MG cells; format: in vivo; conditions: versus DMSO
[7] = target: T1, STAT3; assay: Western blot in U87-MG and MDA-MB-231 cells; format: cell-based; parameters: endogenous in cells; host or cells: L540, HDLM-2, U87-MG, MDA-MB-231, further human glioblastoma and breast cancer lines
Experimental: as §1, §2
Target sequence in this assay (P40763 whole entry): as above

[8] = target: T1, STAT3; assay: Western blot in human malignant breast cancer cell lines; format: cell-based; parameters: endogenous in cells; host or cells: L540, HDLM-2, U87-MG, MDA-MB-231, further human glioblastoma and breast cancer lines
Experimental: as §2
Target sequence in this assay (P40763 whole entry): as above

[9] = target: T1, STAT3; assay: STAT3 dimerization (STAT3-Flag / STAT3-HA, immunoprecipitation and western blot in HEK293T); format: cell-based; parameters: Flag; HA; expressed in transfected cells; host or cells: HEK293T
Target sequence in this assay (P40763 whole entry, species assumed): as the sequence (P40763 whole entry) above

SMILES: Clc1ccc(OCc2noc(C(Cl)(Cl)Cl)n2)c(Cl)c1 [ODZ10117, 3-(2,4-dichloro-phenoxymethyl)-5-trichloromethyl-[1,2,4]oxadiazole]
- expression of Twist [1]: significantly decreased
- activity of STAT3 induced by IL-6 ([2]; IL-6 induced): efficiently inhibited the activity of STAT3 induced by IL-6
- activity of STAT3 ([2]; various human cancer cell lines in which STAT3 was excessively activated): inhibited the activity of STAT3 in all kinds of cell lines used in the experiment
- activity of STAT3 induced by IL-6, compared with known inhibitors ([2]; versus NSC628869 and NSC74859): more efficiently inhibited the activity of STAT3 induced by IL-6 than NSC628869 and NSC74859
- tumor growth [3]: significantly inhibited tumor growth
- cell invasion [4]: significantly decreased cell invasion in both the two cell lines
- activity of caspase-3 in tumor tissues [5]: increased the activity of caspase-3
- expression of Bcl-XL in tumor tissues [5]: significantly decreased the expression
- expression of Ki67 in tumor tissues [5]: significantly decreased the expression of Ki67
- expression of pro/active MMP2 in tumor tissues [5]: significantly decreased the expression
- phosphorylation of STAT3 in tumor tissues ([5]; versus DMSO): phosphorylation of STAT3 significantly decreased
- survival time [6]: survival time increased
- phosphorylation of tyrosine 705 and serine 727 residues of STAT3 [7]: significantly inhibited phosphorylation of tyrosine 705 and serine 727 residues of STAT3
- STAT3 inhibitory efficacy compared with napabucasin [8]: STAT3 inhibitory efficacy similar to that of napabucasin at high concentrations
- phosphorylation of tyrosine 705 of STAT3 [8]: inhibited the phosphorylation of tyrosine 705 of STAT3 in human malignant breast cancer cell lines in a concentration-dependent manner
- time to complete inhibition of phosphorylation of STAT3 after treatment [8]: ≤ 2 h
- STAT3 inhibitory efficacy compared with known inhibitors ([8]; versus NSC628869 and NSC74859): superior STAT3 inhibitory efficacy to NSC628869 and NSC74859
- STAT3 dimerization [9]: inhibited STAT3 dimerization
- STAT3 dimerization inhibitory efficacy compared with napabucasin [9]: superior STAT3 dimerization inhibitory efficacy to napabucasin

From patent US20200354327A1, “COMPOUND HAVING STAT3 INHIBITORY ACTIVITY AND USE THEREOF” (CYTUS H&B CO., LTD., priority 2017, published 2020)
